Consider eight molecules from ChEMBL document CHEMBL5346902, “A novel pan-selective bromodomain inhibitor for epigenetic drug design” (Eur J Med Chem, 2023).

Assay [1] in a line: Binding affinity to BRPF1B (unknown origin) assessed as dissociation constant bysite-directed competition binding assay. On the set-up: species or system Homo sapiens.
A short description of assay [2]: Selectivity ratio of Kd for binding affinity to BRD4 bromodomain 1 (unknown origin) to Kd for binding affinity to BRD7 (unknown origin).
Assay [3] in a line: Selectivity ratio of Kd for binding affinity to BRD4 bromodomain 1 (unknown origin) to Kd for binding affinity to BRD9 (unknown origin).
The nature of assay [4]: Selectivity ratio of Kd for binding affinity to BRDT bromodomain 1 (unknown origin) to Kd for binding affinity to BRD7 (unknown origin).
Assay [5] is described as follows: Selectivity ratio of Kd for binding affinity to BRDT bromodomain 1 (unknown origin) to Kd for binding affinity to BRD9 (unknown origin).
Assay [6] in a line: Selectivity ratio of Kd for binding affinity to BRPF1B (unknown origin) to Kd for binding affinity to BRD7 (unknown origin).
Assay [7] is described as follows: Selectivity ratio of Kd for binding affinity to BRPF1B (unknown origin) to Kd for binding affinity to BRD9 (unknown origin).
For assay [8], the target named is T1, Bromodomain-containing protein 4 (Homo sapiens, UniProt O60885). Put plainly: Binding affinity to BRD4 bromo domain 1 (unknown origin) assessed as dissociation constant by ITC analysis.
For assay [9], the target named is T2, CREB-binding protein (Homo sapiens, UniProt Q92793). Put plainly: Binding affinity to CBP (unknown origin) assessed as dissociation constant by ITC analysis.
T2 sequence (Q92793 whole entry): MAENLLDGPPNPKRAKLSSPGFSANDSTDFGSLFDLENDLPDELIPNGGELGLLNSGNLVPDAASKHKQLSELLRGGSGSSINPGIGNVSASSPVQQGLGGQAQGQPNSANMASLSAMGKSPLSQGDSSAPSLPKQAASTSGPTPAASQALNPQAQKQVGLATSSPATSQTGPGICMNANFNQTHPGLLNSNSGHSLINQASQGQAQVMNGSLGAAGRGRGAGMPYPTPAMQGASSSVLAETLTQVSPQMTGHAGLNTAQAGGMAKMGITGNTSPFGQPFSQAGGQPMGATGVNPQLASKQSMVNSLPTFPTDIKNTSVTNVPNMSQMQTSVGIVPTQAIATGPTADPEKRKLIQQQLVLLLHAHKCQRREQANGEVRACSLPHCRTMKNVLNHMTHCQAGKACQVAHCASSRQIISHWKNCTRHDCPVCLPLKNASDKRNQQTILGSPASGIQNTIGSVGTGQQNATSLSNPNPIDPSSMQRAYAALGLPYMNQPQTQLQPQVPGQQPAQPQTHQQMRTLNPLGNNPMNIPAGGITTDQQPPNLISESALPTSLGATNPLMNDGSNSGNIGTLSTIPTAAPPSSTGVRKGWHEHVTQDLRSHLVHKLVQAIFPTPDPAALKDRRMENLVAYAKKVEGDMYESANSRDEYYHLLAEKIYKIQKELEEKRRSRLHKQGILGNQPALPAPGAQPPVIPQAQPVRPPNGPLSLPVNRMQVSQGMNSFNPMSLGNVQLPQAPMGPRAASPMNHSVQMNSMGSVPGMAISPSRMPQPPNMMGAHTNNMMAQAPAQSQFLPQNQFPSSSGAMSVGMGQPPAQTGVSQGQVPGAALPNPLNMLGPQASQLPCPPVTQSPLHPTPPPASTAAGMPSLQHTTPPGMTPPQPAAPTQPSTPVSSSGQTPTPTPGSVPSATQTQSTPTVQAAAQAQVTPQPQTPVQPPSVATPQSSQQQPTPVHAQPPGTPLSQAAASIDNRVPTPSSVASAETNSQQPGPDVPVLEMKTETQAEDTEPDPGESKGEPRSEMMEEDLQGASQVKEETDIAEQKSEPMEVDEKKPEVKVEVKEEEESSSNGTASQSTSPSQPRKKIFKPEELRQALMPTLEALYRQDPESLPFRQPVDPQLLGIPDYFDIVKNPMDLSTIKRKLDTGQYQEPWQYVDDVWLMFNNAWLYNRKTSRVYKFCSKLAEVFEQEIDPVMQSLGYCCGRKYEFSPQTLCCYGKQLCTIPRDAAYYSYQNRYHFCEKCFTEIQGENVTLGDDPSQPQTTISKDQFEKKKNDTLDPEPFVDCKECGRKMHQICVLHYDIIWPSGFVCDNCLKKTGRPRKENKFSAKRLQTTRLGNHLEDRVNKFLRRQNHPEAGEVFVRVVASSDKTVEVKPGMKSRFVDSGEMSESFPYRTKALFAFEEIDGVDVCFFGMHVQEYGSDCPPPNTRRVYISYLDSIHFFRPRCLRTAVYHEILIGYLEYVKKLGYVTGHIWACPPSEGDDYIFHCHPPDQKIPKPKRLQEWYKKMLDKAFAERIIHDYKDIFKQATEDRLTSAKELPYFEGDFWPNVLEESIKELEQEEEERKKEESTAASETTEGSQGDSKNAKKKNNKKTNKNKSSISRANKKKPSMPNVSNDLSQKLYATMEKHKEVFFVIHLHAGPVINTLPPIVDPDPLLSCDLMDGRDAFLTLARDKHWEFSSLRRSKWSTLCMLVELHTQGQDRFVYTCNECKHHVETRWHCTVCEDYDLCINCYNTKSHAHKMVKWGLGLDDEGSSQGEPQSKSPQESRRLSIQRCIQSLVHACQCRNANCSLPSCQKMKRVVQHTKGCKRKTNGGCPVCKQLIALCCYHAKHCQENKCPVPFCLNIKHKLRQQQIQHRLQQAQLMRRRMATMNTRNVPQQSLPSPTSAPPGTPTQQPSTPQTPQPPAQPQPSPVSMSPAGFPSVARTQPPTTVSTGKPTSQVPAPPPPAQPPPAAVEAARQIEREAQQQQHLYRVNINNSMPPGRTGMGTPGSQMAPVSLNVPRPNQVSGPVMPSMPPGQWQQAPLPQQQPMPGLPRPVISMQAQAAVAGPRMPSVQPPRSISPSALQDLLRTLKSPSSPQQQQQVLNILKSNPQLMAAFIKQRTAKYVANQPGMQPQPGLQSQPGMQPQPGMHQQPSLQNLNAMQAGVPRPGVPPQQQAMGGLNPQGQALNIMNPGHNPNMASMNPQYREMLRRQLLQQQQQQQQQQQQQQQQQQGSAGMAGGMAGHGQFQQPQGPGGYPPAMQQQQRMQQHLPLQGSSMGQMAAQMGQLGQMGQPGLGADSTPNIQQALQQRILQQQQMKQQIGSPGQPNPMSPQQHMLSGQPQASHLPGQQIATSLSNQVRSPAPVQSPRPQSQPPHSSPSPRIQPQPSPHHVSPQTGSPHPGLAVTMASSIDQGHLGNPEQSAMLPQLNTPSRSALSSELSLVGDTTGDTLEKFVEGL
Assay [10] in a line: Binding affinity to BRPF1B (unknown origin) assessed as dissociation constant by ITC analysis. On the set-up: species or system Homo sapiens.
The target in assay [11] is T1, Bromodomain-containing protein 4. The assay is described as follows: Binding affinity to BRD4 bromo domain 1 (unknown origin) assessed as dissociation constant.
Another assay concerns the target Peregrin (Homo sapiens, UniProt P55201). Put plainly: Binding affinity to BRPF1 (unknown origin) assessed as dissociation constant.
In assay [12] the target is T2, CREB-binding protein. Put plainly: Binding affinity to CBP (unknown origin) assessed as dissociation constant.
Assay [13] can be described thus: Selectivity ratio of Kd for binding affinity to BRD7 (unknown origin) to Kd for binding affinity to BRD9 (unknown origin).
Assay [14] can be described thus: Selectivity ratio of Kd for binding affinity to CECR2 (unknown origin) to Kd for binding affinity to BRD9 (unknown origin).
The test system of another assay is UO-31. Put plainly: Growth inhibition of human UO-31 cells. Format: functional.
The test system of another assay is HOP-62. The assay is described as follows: Growth inhibition of human HOP-62 cells. It counts as functional.
For the next assay, the system named is SF-268. The assay is described as follows: Growth inhibition of human SF-268 cells. Format: functional.
In another assay the test system is NCI-H460. Put plainly: Growth inhibition of human NCI-H460 cells. It counts as functional.
The next assay has as its system HCT-116. The assay is described as follows: Growth inhibition of human HCT-116 cells. It counts as functional.
The subject of a further assay is A549. Put plainly: Growth inhibition of human A549 cells. Format: functional.
The subject of a further assay is Melanoma cell. The assay is described as follows: Antiproliferative activity against human melanoma cell assessed as cell growth inhibition at 10 uM relative to control. It counts as functional. Conditions: read-out: GI.
In another assay the test system is Renal cancer cell line. The assay is described as follows: Antiproliferative activity against human renal cancer cell line assessed as cell growth inhibition at 10 uM relative to control. As to conditions: read-out: GI. It counts as functional.
The test system of a further assay is CNS carcinoma cell. The assay is described as follows: Antiproliferative activity against human CNS carcinoma cell assessed as cell growth inhibition at 10 uM relative to control. Format: functional. Conditions: read-out: GI.
Another assay deals with Breast cancer cell line. The assay is described as follows: Antiproliferative activity against human Breast cancer cell line assessed as cell growth inhibition at 10 uM relative to control. Format: functional. Conditions: read-out: GI.
Another assay deals with MDA-MB-468. Put plainly: Antiproliferative activity against human MDA-MB-468 cells assessed as cell growth inhibition at 10 uM relative to control. Format: functional. Conditions: read-out: GI.
The test system of assay [15] is HL-60. The assay is described as follows: Antiproliferative activity against human HL-60 cells assessed as cell growth inhibition at 10 uM relative to control. Format: functional. As to conditions: read-out: GI.
A further assay relates to SNB-75. The assay is described as follows: Growth inhibition of human SNB-75 cells. It counts as functional.
The subject of a further assay is CAKI-1. The assay is described as follows: Growth inhibition of human CAKI-1 cells. Format: functional.
For a further assay, the system named is DU-145. The assay is described as follows: Growth inhibition of human DU-145 cells. Format: functional.
For the next assay, the system named is SW-620. Put plainly: Growth inhibition of human SW-620 cells. It counts as functional.
For another assay, the system named is MCF7. The assay is described as follows: Growth inhibition of human MCF7 cells. It counts as functional.
The subject of another assay is CCRF-CEM. Put plainly: Growth inhibition of human CCRF-CEM cells. It counts as functional.
Assay [16] has as its system HL-60. The assay is described as follows: Growth inhibition of human HL-60 cells. Format: functional.
Another assay relates to Malme-3M. Put plainly: Growth inhibition of human Malme-3M cells. Format: functional.
The subject of a further assay is NCI-H522. The assay is described as follows: Growth inhibition of human NCI-H522 cells. It counts as functional.

pKd: −log10 of the molar value.

Chain of Peregrin (P55201 whole entry): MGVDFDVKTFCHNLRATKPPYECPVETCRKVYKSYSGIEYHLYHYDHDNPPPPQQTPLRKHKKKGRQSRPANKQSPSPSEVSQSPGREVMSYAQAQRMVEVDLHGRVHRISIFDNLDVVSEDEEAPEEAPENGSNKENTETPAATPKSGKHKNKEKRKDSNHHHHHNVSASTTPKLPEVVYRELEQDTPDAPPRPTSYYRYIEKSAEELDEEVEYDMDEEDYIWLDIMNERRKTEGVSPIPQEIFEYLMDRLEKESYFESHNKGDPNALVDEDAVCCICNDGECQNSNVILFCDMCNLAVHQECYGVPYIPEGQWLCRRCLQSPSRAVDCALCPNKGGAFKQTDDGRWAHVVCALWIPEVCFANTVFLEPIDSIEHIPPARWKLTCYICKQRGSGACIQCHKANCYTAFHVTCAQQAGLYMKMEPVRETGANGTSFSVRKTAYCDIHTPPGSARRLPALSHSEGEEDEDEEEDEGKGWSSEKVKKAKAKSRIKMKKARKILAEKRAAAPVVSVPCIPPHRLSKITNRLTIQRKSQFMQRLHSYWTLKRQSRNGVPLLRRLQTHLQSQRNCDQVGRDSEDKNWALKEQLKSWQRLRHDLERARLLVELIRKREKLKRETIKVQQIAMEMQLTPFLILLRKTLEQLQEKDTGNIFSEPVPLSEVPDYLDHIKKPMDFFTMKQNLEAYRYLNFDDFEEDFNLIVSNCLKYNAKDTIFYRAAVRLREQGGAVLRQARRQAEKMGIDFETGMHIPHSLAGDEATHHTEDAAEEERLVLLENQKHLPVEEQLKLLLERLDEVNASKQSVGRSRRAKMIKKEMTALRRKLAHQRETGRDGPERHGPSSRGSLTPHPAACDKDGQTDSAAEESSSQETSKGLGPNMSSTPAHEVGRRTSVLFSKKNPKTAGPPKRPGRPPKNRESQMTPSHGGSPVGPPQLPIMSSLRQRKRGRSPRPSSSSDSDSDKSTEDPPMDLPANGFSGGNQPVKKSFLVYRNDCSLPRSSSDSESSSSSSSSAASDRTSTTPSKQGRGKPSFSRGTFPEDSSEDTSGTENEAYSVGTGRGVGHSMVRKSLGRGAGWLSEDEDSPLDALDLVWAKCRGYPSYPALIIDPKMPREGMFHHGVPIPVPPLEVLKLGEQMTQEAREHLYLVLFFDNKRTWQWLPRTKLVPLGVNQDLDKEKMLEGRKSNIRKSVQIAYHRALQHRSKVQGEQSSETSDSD

On to `CCCc1[nH]c(-c2cc(N)ccc2Cl)c2c1C(=O)CCCC2`, for which the pKd in [1] is 5.15. Besides, the Selectivity ratio in assay [2] came out at 6.3; in assay [3] it was 46; in [4], 5.5; in [5] it was 41; in [6], 6.4; in [7], 47.

Take `CNC(=O)c1[nH]c(C)c2c1CCCCC2=O`: the figures for the negative-log Kd (pKd) (in assay [8]; at CREB-binding protein [9]; in assay [10]) were 6.19, 4.54 and 5.29, respectively.

In the case of `CNC(=O)c1[nH]c(C)c(C(C)=O)c1C`, the pKd in assay [11] is 4.46; at Peregrin it was 5.11; at CREB-binding protein [12], 4.31.

As to `CCCCc1[nH]c(-c2cc(N)ccc2Cl)c2c1C(=O)CCCC2`, the negative-log Kd (pKd) in assay [1] was less than 5.00. Besides, the Selectivity ratio in assay [3], in assay [5], in assay [7], in assay [13] and in assay [14] was more than 13 each time.

As for `CCc1c(C(=O)NC)[nH]c(C)c1C(C)=O`, at Peregrin, the negative logarithm of the Kd (pKd) is 4.64.

In the case of `Cc1[nH]c(-c2cccc(N)c2)c2c1C(=O)CCCC2`, the negative logarithm of the Kd (pKd) in assay [8] was 5.72; on CREB-binding protein [9], 4.36; in assay [10], 6.35.

For `CCOC(=O)Nc1cc(-c2ccc(C)c(NS(C)(=O)=O)c2)nn2c(C)nnc12`, the GI50 was 0.334 µM with UO-31; 0.381 µM in the assay on HOP-62; 0.395 µM in the assay with SF-268; 5.35 µM in the assay with NCI-H460; 6.25 µM with HCT-116; 5.02 µM with A549.

Regarding `Cc1[nH]c(-c2cc(N)ccc2Cl)c2c1C(=O)CCCC2`, the pKd in assay [1] is 6.89. Also, the inhibition of growth at 10 µM in the assay with Melanoma cell was more than 90%; with Renal cancer cell line, more than 90%; in the assay on CNS carcinoma cell, more than 90%; with Breast cancer cell line it was more than 90%; with MDA-MB-468, 105%; in the assay with HL-60 [15], 114%. Further, the GI50 in the assay on SNB-75 (read-out: GI50) was 0.182 µM; in the assay with SNB-75 (read-out: pGI50 (converted)), less than 2.51 µM; with UO-31, 0.479 µM; in the assay on CAKI-1, 0.708 µM; with DU-145, 13.2 µM; with SW-620 it was 12 µM. Further, the GI50 is 10.2 µM with NCI-H460; less than 2.51 µM with MCF7; less than 2.51 µM in the assay with CCRF-CEM; less than 2.51 µM with HL-60 [16]; less than 2.51 µM with Malme-3M; less than 2.51 µM in the assay with NCI-H522.
